Results as given in PMC10079235 (PLOS Neglected Tropical Diseases, 2023).

Columns and labels:
HCT-8 cells = assay: MTS cytotoxicity assay with MDR1 inhibitor elacridar, several HCT-8 derived cell lines; conditions: 300 nM, NC, MDR1, NC(PTX), NC(NTZ)
Protocol: If the increase of tolerance to a specified inhibitor in host cells was truly mediated by MDR1, specific inhibition of MDR1 would restore the sensitivity of the host cells to the inhibitor (as indicated by TC50). Additionally, inhibition of MDR1 would not affect the anti-cryptosporidial efficacy (EC50) if the drug that acted only on the parasite target, or partially affect the efficacy (EC50) if the drug that also acted on host cell target. This notion was tested using elacridar, a third generation of MDR1 inhibitor [18, 23–25]. […] We then examined the effect of elacridar on the cytotoxicity and anti-cryptosporidial efficacies of the six inhibitors in the range of TC50 or EC50 concentrations.
Host cell drug tolerance to specified inhibitors was evaluated by 3-(4,5-dimethylthiazol-2-yl)-5-(3-carboxymethoxyphenyl)-2-(4-sulfophenyl)-2H-tetrazolium (MTS) assay. […] Optical density at 490 nm (OD490) was measured using a Synergy LX multi-mode reader (BioTek, Winooski, VT). Drug tolerance was indicated by half-maximal cytotoxic concentrations (TC50 values) calculated by nonlinear regression using 4PL model. Selectivity index (SI) for each compound was determined by the ratio between TC50 and EC50 values (SI = TC50/EC50).

MDR1 = tested on: MDR1; design: method as in PMID 34648615; conditions: 300 nM ref 15; cited from earlier work
Cryptosporidium parvum = assay: Anti-cryptosporidial efficacy assay (44-h infection/qRT-PCR); conditions: 300 nM; cultured with NC, MDR1(PTX) and MDR1(NTZ) cells

COc1cc2c(cc1OC)CN(CCc1ccc(NC(=O)c3cccc4c(=O)c5cccc(OC)c5[nH]c34)cc1)CC2 [elacridar]
Effect on growth of host cells (HCT-8 cells): no or little effect
Inhibition on the activity of MDR1 (MDR1): strong inhibition
Effect on growth of C. parvum (Cryptosporidium parvum): no or little effect
